{"source": "patent US20180117103A1", "about": "“COMPOSITION FOR ANTIOXIDATION AND IMPROVEMENT OF SKIN CONDITIONS” (CELL BIOTECH CO., LTD., priority 2016, published 2018)", "key": {"[1]": {"system": "E. faecium", "assay": "Distribution of E. faecium in feces of white rats by real-time PCR (Test Example 4)", "assay_type": "in vivo, white rats (male, SD rats)", "details": "intestinal feces at 5 weeks after oral administration", "protocol": "(§1) In order to examine the change in intestinal microorganisms by administration of probiotics and vitamin C according to the present invention, expression of genesspecific for L. rhamnosus and E. faecium in the test groups (G1 to G4) prepared in Example 1 was measured.\n(§2) At 5 weeks after oral administration in Example 1, intestinal feces were isolated from the rats of G1 to G4, and DNA was extracted using an MP bio stool kit according to the manufacturer's protocol. Using the extracted DNA, real-time polymerase chain reaction (PCR) was performed using primers specific for L. rhamnosus and E. faecium. The results are shown in FIGS. 4 and 5 and Tables 6 and 7 below."}, "[2]": {"system": "superoxide dismutase (SOD)", "assay": "Activity of superoxide dismutase in serum of white rats, colorimetric assay kit (Test Example 2)", "assay_type": "in vivo, white rats (male, SD rats)", "details": "oral administration for 5 weeks", "protocol": "In order to examine the change in antioxidant activity by administration of probiotics and vitamin C (group G4) according to the present invention, antioxidant enzyme activity and serum vitamin levels were measured in the following manner. Blood was collected from the orbits of the white rats of Example 1. The collected blood was incubated at room temperature for 2 hours, and then centrifuged at 1500×g at 4° C. for 15 minutes to separate sera, and the separated sera were stored at −80° C. until use in experiments. For measurement of the activity of antioxidant enzyme in the separated sera, the activity of superoxide dismutase in the sera was measured using a superoxide dismutase assay kit based on a colorimetry assay, and the results of the measurement are shown in FIG. 1 and Table 3 below."}, "[3]": {"system": "total antioxidant capacity (TAS)", "assay": "Total antioxidant capacity (TAS) in serum of white rats, colorimetric kit (Test Example 2)", "assay_type": "in vivo, white rats (male, SD rats)", "details": "oral administration for 5 weeks", "protocol": "In order to examine the change in antioxidant activity by administration of probiotics and vitamin C (group G4) according to the present invention, antioxidant enzyme activity and serum vitamin levels were measured in the following manner. Blood was collected from the orbits of the white rats of Example 1. The collected blood was incubated at room temperature for 2 hours, and then centrifuged at 1500×g at 4° C. for 15 minutes to separate sera, and the separated sera were stored at −80° C. until use in experiments. In order to measure the defense system composed of antioxidant vitamins, non-enzymatic antioxidant substances and antioxidant enzymes, which defend against the toxicity of reactive oxygen species and total antioxidant capacity (TAS) values were measured using a kit of measuring antioxidant activity based on a colorimetry assay."}, "[4]": {"assay": "Weight change of white rats on oral administration of probiotics and vitamin C (Test Example 1)", "assay_type": "in vivo, white rats (male, SD rats)", "details": "N = 5", "protocol": "In order to verify the effect of a combination of probiotics and vitamin C on anti-aging and the like, 4-week-old white rats (male, SD rats, Saeronbio, Korea) were purchased. Two of the animals were housed in each polypropylene cage and acclimated for one week while they were allowed access to feed and water ad libitum. In addition, the animals were housed at a temperature of 24±2° C. and a relative humidity of 40±20% with a 12-hr light/12-hr dark cycle. During the acclimation period, the health of the rats was checked, and among these rats, animals whose activity was not reduced were selected and used in subsequent tests. […] In order to examine the stability and phenotype of each white rat when the probiotics and the vitamin C were administered to the test animals for 5 weeks in Example 1, the weight change patterns of the white rats during the period from the day before administration to 5 weeks after the start of administration in Example 1 were measured, and the results of the measurement are shown in Table 2 below."}, "[5]": {"assay": "Vitamin C levels in sera of white rats by HPLC", "assay_type": "in vivo", "details": "male, SD, rat, 1000 mg/head, serum of white rats, oral administration for 5 weeks, read-out: Vit C (serum vitamin C level), Mean ± SD", "protocol": "Blood was collected from the orbits of the white rats of Example 1. The collected blood was incubated at room temperature for 2 hours, and then centrifuged at 1500×g at 4° C. for 15 minutes to separate sera, and the separated sera were stored at −80° C. until use in experiments.\nFor measurement of vitamin C levels in the sera of the white rats prepared in Example 1, high-performance liquid chromatography (HPLC) analysis was performed using a vitamin C reagent kit, and the results of the analysis are shown in FIG. 3 and Table 5 below."}, "[6]": {"system": "L. rhamnosus", "assay": "Distribution of L. rhamnosus in feces of white rats by real-time PCR (Test Example 4)", "assay_type": "in vivo, white rats (male, SD rats)", "details": "intestinal feces at 5 weeks after oral administration", "protocol": "as §1, §2"}}, "data": [{"smiles": "O=C1O[C@H]([C@@H](O)CO)C(O)=C1O", "note": "[G3, L-ascorbic acid]", "values": [{"measurement": "E. faecium, Mean ± SD", "setting": "[1]", "result": "7.032 ± 0.1134", "unit": "Nlog10/1 g feces"}, {"measurement": "SOD, Mean ± SD", "setting": "[2]", "result": "6.248 ± 0.08967", "unit": "U/L"}, {"measurement": "TAS, Mean ± SD", "setting": "[3]", "result": "1.568 ± 0.01708", "unit": "mmol/L"}, {"measurement": "Change in weight, Mean", "setting": "[4]; 0 week (day before administration), oral", "result": 137.6, "unit": "g"}, {"measurement": "Change in weight, Mean", "setting": "[4]; 1 week of oral administration", "result": 178.8, "unit": "g"}, {"measurement": "Change in weight, Mean", "setting": "[4]; 2 weeks of oral administration", "result": 237.8, "unit": "g"}, {"measurement": "Change in weight, Mean", "setting": "[4]; 3 weeks of oral administration", "result": 293.0, "unit": "g"}, {"measurement": "Change in weight, Mean", "setting": "[4]; 4 weeks of oral administration", "result": 338.1, "unit": "g"}, {"measurement": "Change in weight, Mean", "setting": "[4]; 5 weeks of oral administration", "result": 354.1, "unit": "g"}, {"measurement": "concentration at 5 weeks", "setting": "[5]", "result": "32.5 ± 1.29", "unit": "µM"}, {"measurement": "L. rhamnosus, Mean ± SD", "setting": "[6]", "result": "7.340 ± 0.09975", "unit": "Nlog10/1 g feces"}]}]}
